In PubChem BioAssay AID248 (DTP/NCI, 2004):
Several values for one entry are separate records, joined by “and”; a condition that tells them apart may be missing. Equal entries are not always repeated. Inconclusive results and toxic doses are left out. Rule as the data show it: active = T/C of 150% or more; inactive = T/C below 125%.

System: L1210 leukemia ip in BDF1 mice, survival T/C
Assay: NCI In Vivo Anticancer Drug Screen. Data for tumor model L1210 Leukemia (intraperitoneal) in B6D2F1 (BDF1) mice
Conditions: endpoint: mean survival time, higher = longer survival
Outline: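 Tumor cells were implanted, animals were treated, and survival was followed. The result divides the treated measurement by the vehicle-control measurement.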

[1] = dose: 100.0 mg/kg/injection, schedule: Q01DX009 (ip), vehicle: saline with Tween-80
[2] = dose: 200.0 mg/kg/injection, schedule: Q01DX009 (ip), vehicle: saline with Tween-80
[3] = dose: 50.0 mg/kg/injection, schedule: Q01DX009 (ip), vehicle: saline with Tween-80
[4] = dose: 100.0 mg/kg/injection, schedule: Q04DX003 (ip), vehicle: Klucel (hydroxypropylcellulose) (HPC)
[5] = dose: 200.0 mg/kg/injection, schedule: Q04DX003 (ip), vehicle: Klucel (hydroxypropylcellulose) (HPC)
[6] = dose: 400.0 mg/kg/injection, schedule: Q04DX003 (ip), vehicle: Klucel (hydroxypropylcellulose) (HPC)
[7] = dose: 100.0 mg/kg/injection, schedule: Q01DX001 (ip), vehicle: other
[8] = dose: 200.0 mg/kg/injection, schedule: Q01DX001 (ip), vehicle: other
[9] = dose: 400.0 mg/kg/injection, schedule: Q01DX001 (ip), vehicle: other
[10] = dose: 25.0 mg/kg/injection, schedule: Q04DX002 (ip), vehicle: Klucel (hydroxypropylcellulose) (HPC)
[11] = dose: 50.0 mg/kg/injection, schedule: Q04DX002 (ip), vehicle: Klucel (hydroxypropylcellulose) (HPC)
[12] = dose: 100.0 mg/kg/injection, schedule: Q04DX002 (ip), vehicle: Klucel (hydroxypropylcellulose) (HPC)
[13] = dose: 200.0 mg/kg/injection, schedule: Q04DX002 (ip), vehicle: Klucel (hydroxypropylcellulose) (HPC)
[14] = dose: 400.0 mg/kg/injection, schedule: Q04DX002 (ip), vehicle: Klucel (hydroxypropylcellulose) (HPC)

Measured: T/C

CS(=O)(=O)OCCN(CCOS(C)(=O)=O)c1ccc(C=Nc2cccc(C(=O)O)c2)cc1
inactive: dose: 2.5 mg/kg/injection, schedule: Q04DX003 (ip), vehicle: Klucel (hydroxypropylcellulose) (HPC) 111 % of control | dose: 5.0 mg/kg/injection, schedule: Q04DX003 (ip), vehicle: Klucel (hydroxypropylcellulose) (HPC) 120 % of control | dose: 80.0 mg/kg/injection, schedule: Q04DX003 (ip), vehicle: Klucel (hydroxypropylcellulose) (HPC) 91 % of control

COc1ccc2c(c1O)[C@]13CCN(C)[C@H](C2)[C@@H]1CCC(=O)C3
inactive: dose: 75.0 mg/kg/injection, schedule: Q01DX001 (ip), vehicle: saline 101 % of control | dose: 150.0 mg/kg/injection, schedule: Q01DX001 (ip), vehicle: saline 106 % of control

COc1ccc(C)cc1NC(=O)SCCSC(=O)Nc1cc(C)ccc1OC
inactive: [1] 100 % of control | [2] 87 % of control

COC(=O)C(C)(C)O
inactive: dose: 100.0 mg/kg/injection, schedule: Q01DX009 (ip), vehicle: saline 102 % of control | dose: 100.0 mg/kg/injection, schedule: Q04DX003 (ip), vehicle: saline 104 % of control | dose: 200.0 mg/kg/injection, schedule: Q01DX009 (ip), vehicle: saline 102 % of control | dose: 200.0 mg/kg/injection, schedule: Q04DX003 (ip), vehicle: saline 100 % of control | dose: 400.0 mg/kg/injection, schedule: Q01DX009 (ip), vehicle: saline 97 % of control | dose: 400.0 mg/kg/injection, schedule: Q04DX003 (ip), vehicle: saline 104 % of control

COc1cc(/C=N/NC(=O)CNC(=O)c2ccc(Cl)cc2Cl)ccc1O
inactive: [3] 91 % of control | [1] 86 % of control | [2] 88 % of control

Nc1nc(N)nc(-c2ccccc2NC(=O)c2ccccc2N)n1
inactive: dose: 100.0 mg/kg/injection, schedule: Q01DX009 (ip), vehicle: Klucel (hydroxypropylcellulose) (HPC) 95 % of control | [4] 103 % of control | dose: 200.0 mg/kg/injection, schedule: Q01DX009 (ip), vehicle: Klucel (hydroxypropylcellulose) (HPC) 91 % of control | [5] 101 % of control | dose: 400.0 mg/kg/injection, schedule: Q01DX009 (ip), vehicle: Klucel (hydroxypropylcellulose) (HPC) 101 % of control | [6] 95 % of control

CC(=O)CSc1ccc(C(C)(C)C)cc1
inactive: dose: 100.0 mg/kg/injection, schedule: Q01DX001 (ip), vehicle: carboxymethylcellulose (CMC) 102 % of control | dose: 200.0 mg/kg/injection, schedule: Q01DX001 (ip), vehicle: carboxymethylcellulose (CMC) 96 % of control | dose: 400.0 mg/kg/injection, schedule: Q01DX001 (ip), vehicle: carboxymethylcellulose (CMC) 105 % of control

Oc1ccccc1/C=N/c1ccccn1
inactive: dose: 25.0 mg/kg/injection, schedule: Q01DX009 (ip), vehicle: Klucel (hydroxypropylcellulose) (HPC) 106 % of control | dose: 50.0 mg/kg/injection, schedule: Q01DX009 (ip), vehicle: Klucel (hydroxypropylcellulose) (HPC) 97 % of control

CCOC(=O)n1cnc2c(Cl)ncnc21
inactive: [7] 109 % of control | [8] 102 % of control | [9] 110 % of control

O=C(O)C1Cc2ccccc2CN1 (stereo not given)
inactive: dose: 25.0 mg/kg/injection, schedule: Q01DX009 (ip), vehicle: saline with Tween-80 95 % of control | [3] 98 % of control | [1] 96 % of control and 106 % of control

COc1cc(Cn2cccc2C=O)c([N+](=O)[O-])cc1OC
inactive: [10] 89 % of control | [11] 101 % of control | [12] 86 % of control

O=C(c1ccccn1)C(O)c1ccccn1 (stereo not given)
inactive: [11] 96 % of control | [12] 99 % of control | [13] 96 % of control

CNC(=O)C1OC(n2cnc3c(N)ncnc32)C(O)C1O (stereo not given)
inactive: dose: 0.19 mg/kg/injection, schedule: Q01DX005 (ip), vehicle: saline 110 % of control | dose: 0.19 mg/kg/injection, schedule: Q01DX009 (ip), vehicle: saline 114 % of control | dose: 0.39 mg/kg/injection, schedule: Q01DX005 (ip), vehicle: saline 105 % of control | dose: 0.39 mg/kg/injection, schedule: Q01DX009 (ip), vehicle: saline 93 % of control | dose: 0.78 mg/kg/injection, schedule: Q01DX005 (ip), vehicle: saline 116 % of control | dose: 0.78 mg/kg/injection, schedule: Q01DX009 (ip), vehicle: saline 103 % of control

CC(C)SSC(C)C
inactive: dose: 100.0 mg/kg/injection, schedule: Q01DX001 (ip), vehicle: saline 105 % of control | dose: 200.0 mg/kg/injection, schedule: Q01DX001 (ip), vehicle: saline 108 % of control | dose: 400.0 mg/kg/injection, schedule: Q01DX001 (ip), vehicle: saline 89 % of control

CC(=O)Nc1cc([N+](=O)[O-])c(C)c([N+](=O)[O-])c1
inactive: dose: 100.0 mg/kg/injection, schedule: Q04DX003 (ip), vehicle: saline with Tween-80 104 % of control | dose: 200.0 mg/kg/injection, schedule: Q04DX003 (ip), vehicle: saline with Tween-80 97 % of control | dose: 400.0 mg/kg/injection, schedule: Q04DX003 (ip), vehicle: saline with Tween-80 97 % of control

Cc1nc(N)[nH]c(=O)c1NC(=O)c1ccc(N)cc1
inactive: dose: 12.5 mg/kg/injection, schedule: Q04DX002 (ip), vehicle: saline with Tween-80 101 % of control | dose: 25.0 mg/kg/injection, schedule: Q04DX002 (ip), vehicle: saline with Tween-80 96 % of control | dose: 50.0 mg/kg/injection, schedule: Q04DX002 (ip), vehicle: saline with Tween-80 99 % of control

COc1ccc2c(CSc3nc(N)nc4nc[nH]c34)cc(=O)oc2c1
inactive: [10] 108 % of control | [11] 112 % of control | [12] 120 % of control | [13] 123 % of control | [14] 115 % of control

COc1ccc2c3c1OC1c4[nH]ncc4CC4C(C2)N(C)CCC314 (stereo not given)
inactive: [4] 104 % of control | [5] 93 % of control | [6] 106 % of control

O=C(NC/C(Br)=C/Br)Oc1cccc2c1CCCC2
inactive: dose: 100.0 mg/kg/injection, schedule: Q04DX002 (ip), vehicle: other 94 % of control | dose: 200.0 mg/kg/injection, schedule: Q04DX002 (ip), vehicle: other 94 % of control | dose: 400.0 mg/kg/injection, schedule: Q04DX002 (ip), vehicle: other 91 % of control

O=C1NCN(c2ccccc2)C12CCN(Cc1nc3cc([N+](=O)[O-])ccc3n1-c1ccccc1)CC2
inactive: dose: 100.0 mg/kg/injection, schedule: Q01DX001 (ip), vehicle: Klucel (hydroxypropylcellulose) (HPC) 86 % of control | dose: 200.0 mg/kg/injection, schedule: Q01DX001 (ip), vehicle: Klucel (hydroxypropylcellulose) (HPC) 93 % of control | dose: 400.0 mg/kg/injection, schedule: Q01DX001 (ip), vehicle: Klucel (hydroxypropylcellulose) (HPC) 99 % of control

Cc1cc(=O)c2c(C)ccc(C)c2[nH]1
inactive: [7] 95 % of control | [8] 91 % of control | [9] 98 % of control

COc1cc(/C=N/N=C(N)N)cc(I)c1O
inactive: dose: 15.0 mg/kg/injection, schedule: Q01DX Z (ip), vehicle: carboxymethylcellulose (CMC) 100 % of control | dose: 30.0 mg/kg/injection, schedule: Q01DX Z (ip), vehicle: carboxymethylcellulose (CMC) 106 % of control | dose: 30.0 mg/kg/injection, schedule: Q01DX Z (oral), vehicle: carboxymethylcellulose (CMC) 102 % of control | dose: 60.0 mg/kg/injection, schedule: Q01DX Z (ip), vehicle: carboxymethylcellulose (CMC) 112 % of control | dose: 60.0 mg/kg/injection, schedule: Q01DX Z (oral), vehicle: carboxymethylcellulose (CMC) 95 % of control | dose: 120.0 mg/kg/injection, schedule: Q01DX Z (oral), vehicle: carboxymethylcellulose (CMC) 98 % of control

Cc1cnc(NC(N)=O)nc1-c1ccccc1O
inactive: [12] 95 % of control | [13] 91 % of control | [14] 87 % of control
